The values below come from patent US20020106348A1, “Cancer therapeutics involving the administration of 2-methoxyestradiol and an agent that increases intracellular superoxide anion” (priority 2000, published 2002).

Like-named read-outs stand apart in the source and are kept apart here.

In data set [1] the test system is ML-1. Briefly: MTT assay, ML-1 leukemia cells. It is filed as cell-based. The conditions noted are these: Homo sapiens, ML1, ML-1 (wt p53).
In the next data set the test system is K562. Briefly: MTT assay, K562 cells. It is filed as cell-based. Conditions: Homo sapiens, K562 (no p53). In general terms: Tetrazolium dyes change colour on reduction, which living cells bring about.
The test system of another data set is CML cells. Briefly: MTT assay, primary CML cells. The conditions noted are these: 30 μM, 3 patients. The format is cell-based, human.
A further data set deals with HL-60. Briefly: Apoptosis / nucleosomal DNA fragmentation in HL-60 cells. It is filed as cell-based, human.
Data set [2] concerns ML-1. Briefly: H2O2 generation in cell culture, ML-1 cells. It is filed as cell-based, human.
Another data set concerns the target SOD. Briefly: SOD inhibition in vitro (restated, enzyme not specified). It is filed as biochemical. Conditions: restated in discussion.
For the next data set, the target named is human DNA polymerase α (Homo sapiens, UniProt P09884). Briefly: Effect on DNA polymerase α. The format is biochemical. The conditions noted are these: 1-100 μM.
Sequence of human DNA polymerase α (P09884 whole entry): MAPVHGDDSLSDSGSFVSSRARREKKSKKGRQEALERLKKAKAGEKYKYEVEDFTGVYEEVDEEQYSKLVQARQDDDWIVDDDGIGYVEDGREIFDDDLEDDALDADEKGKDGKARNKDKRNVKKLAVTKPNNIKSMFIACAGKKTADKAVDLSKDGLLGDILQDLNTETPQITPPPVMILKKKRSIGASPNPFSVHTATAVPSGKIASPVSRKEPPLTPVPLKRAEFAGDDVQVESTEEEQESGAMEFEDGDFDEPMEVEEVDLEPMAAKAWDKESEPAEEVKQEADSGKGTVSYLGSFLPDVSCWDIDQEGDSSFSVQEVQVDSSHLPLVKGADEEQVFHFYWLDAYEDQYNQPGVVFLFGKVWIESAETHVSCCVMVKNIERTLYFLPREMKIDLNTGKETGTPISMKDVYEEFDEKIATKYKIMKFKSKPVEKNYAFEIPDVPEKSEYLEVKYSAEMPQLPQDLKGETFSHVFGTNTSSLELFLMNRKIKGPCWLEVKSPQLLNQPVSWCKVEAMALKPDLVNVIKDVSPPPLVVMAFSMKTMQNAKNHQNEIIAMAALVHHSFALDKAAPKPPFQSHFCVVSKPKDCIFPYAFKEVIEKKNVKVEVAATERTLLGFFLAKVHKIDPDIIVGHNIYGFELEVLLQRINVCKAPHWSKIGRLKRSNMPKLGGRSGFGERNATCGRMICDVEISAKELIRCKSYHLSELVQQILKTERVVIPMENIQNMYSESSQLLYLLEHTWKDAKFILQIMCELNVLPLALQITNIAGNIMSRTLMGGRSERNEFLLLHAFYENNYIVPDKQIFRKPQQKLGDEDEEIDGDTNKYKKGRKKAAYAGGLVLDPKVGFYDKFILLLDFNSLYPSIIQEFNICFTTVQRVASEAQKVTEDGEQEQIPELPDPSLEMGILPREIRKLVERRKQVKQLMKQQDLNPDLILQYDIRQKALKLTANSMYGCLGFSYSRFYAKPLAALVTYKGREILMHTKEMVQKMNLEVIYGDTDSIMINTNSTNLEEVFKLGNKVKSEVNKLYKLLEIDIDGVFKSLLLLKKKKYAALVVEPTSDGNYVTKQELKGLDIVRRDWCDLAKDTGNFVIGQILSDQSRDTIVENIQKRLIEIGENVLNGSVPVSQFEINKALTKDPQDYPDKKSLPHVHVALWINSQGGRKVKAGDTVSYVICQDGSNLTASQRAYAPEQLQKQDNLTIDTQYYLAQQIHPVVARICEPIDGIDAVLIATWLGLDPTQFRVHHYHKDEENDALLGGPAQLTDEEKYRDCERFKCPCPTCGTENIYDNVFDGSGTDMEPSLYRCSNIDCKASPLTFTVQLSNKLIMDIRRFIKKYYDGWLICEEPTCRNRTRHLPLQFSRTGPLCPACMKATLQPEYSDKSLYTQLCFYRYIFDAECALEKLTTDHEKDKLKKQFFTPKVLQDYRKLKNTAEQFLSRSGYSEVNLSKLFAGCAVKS
Data set [3] concerns ML-1, HL-60 and CLL cells. Briefly: HPLC analysis of cellular metabolites of [3H]2-ME. The format is in vitro ADME, human. The conditions noted are these: [3H]2-ME 0.5 μCi/ml, 5 h. The protocol:
To determine cellular uptake of 2-ME, cells were incubated with 1 μM [^3H]2-ME (0.5 μCi/ml) for 5 h and when washed twice with cold PBS. Radioactivity associated with the cell pellets or the culture medium was quantitated by liquid scintillation counting. 2-ME concentrations were calculated based on the specific radioactivity of [^3H]2-ME, cell number, and the mean cell volume as measured by a Coulter Counter equipped with a 256-Channelyzer. HPLC was used to analyze potential cellular metabolites of 2-ME. Cells were incubated with [^3H]2-ME (0.5 μCi/ml) for 5 h, washed twice with PBS, and then extracted with 50% methanol. The extracts were analyzed by HPLC equipped with a UV detector (284 nm) and an on-line liquid scintillation counter, using a μBondapak C18 reversed-phase column and the following running conditions: 1 ml/min; 0-5 min, 100% buffer A (water:acetontrile:acetic acid=59:40:1); 5-17 min, a linear gradient of 0->100% buffer B (water:acetontrile:acetic acid=39:60:1); 17-30 min, 100% B.

What is called IC50 is the point on the concentration scale where inhibition reaches its midpoint. Low values mean higher potency, high ones lower potency. Consider `COc1cc2c(cc1O)CC[C@@H]1[C@@H]2CC[C@]2(C)[C@@H](O)CC[C@@H]12` [2-ME, 1,3,5(10)-estratrien-2,3,17b-triol 2 methylether], for which the half-inhibitory concentration (IC50) with ML-1 [1] is < 1000 nM; in the data set with K562, < 1000 nM; on SOD, ~20 µM. Further, the cell survival is on record as 54.7% with CML cells; 32.7% in the data set on CLL cells (30 μM, CLL cells, 31 patients); “loss of cell survival” in the data set with CLL cells (primary leukemia cells from a CLL patient, 2-ME alone (FIG. 32)). For the same compound, the “apoptotic morphology and nucleosomal DNA fragmentation” value in the data set with HL-60 (1 μM, HL-60 (p53−)) was “Typical apoptotic morphology and nucleosomal DNA fragmentation were observed”. Also, in the data set with HL-60 (estrogen derivatives, FIG. 20), the “DNA fragmentation (apoptosis) in HL-60 cells” value is recorded as “induced DNA fragmentation”. Further, in the data set with ML-1 [2], the H2O2 production result is reported as “concentration-dependent decrease of H2O2”. Besides, the “effect on DNA polymerase α” value at human DNA polymerase α was “little effect”. In addition, the cellular drug metabolites result in [3] was “no significant drug metabolites”. Further, the results for the “sensitivity to single agent” value in the data set with CLL cells (2-ME-resistant CLL cells) and with CLL cells (CLL cells of the two sensitive patients) were “insensitive to either drug alone” and “relatively sensitive”, respectively. In the data set with CLL cells (10 and 30 μM, p<0.0001), the “toxicity to CLL cells versus normal lymphocytes” value is reported as “significantly more toxic to CLL cells than to normal lymphocytes”. Also, the “cell survival in CLL cells” value in the data set on CLL cells (FIGS. 6-8, MTT 72-96 h) is “substantial loss of cell survival”.
